34 compounds from patent publication US20240025856A1, “1,2,3,4-TETRAHYDROQUINOLINE DERIVATIVES AS INHIBITORS OF THE YAP/TAZ-TEAD ACTIVATION FOR TREATING CANCER” (KATHOLIEKE UNIVERSITEIT LEUVEN, priority 2020, published 2024) can be followed below.

The first test has as its system YAP/TAZ-TEAD transcription. The experiment in a line: Reporter gene assay for measuring the inhibition of YAP/TAZ-TEAD transcription (TEAD-responsive element luciferase reporter in Hek293T cells). As to conditions: Hek293T cells transiently transfected with TEAD-responsive element luciferase reporter; 24 hours incubation. The format is cell-based. The protocol:
Hek293T cells are cultured in DMEM supplemented with 10% fetal bovine serum, Sodium pyruvate, Sodium bicarbonate, L-glutamine. The cells are harvested and transiently transfected with TEAD-responsive element luciferase reporter. Transfected cells are plated in 384-wells plate containing pre-diluted compounds. After 24 hours incubation at 37° C./5% CO2, assay plates were cooled down to RT and levelled to an equal volume per well, prior to the addition of 25 uL luciferase substrate SteadyLite (Perkin Elmer)/well. The plate was shaken for 10 min at 600 rpm, centrifuged for 1 min at 500 rpm and measured with an Envision reader (PerkinElmer). The amount of relative light units produced by the TEAD reporter is used to calculated percent of inhibition. The percent of reporter inhibition was calculated in the presence of a positive control inhibitor (100% inhibition) versus a condition with the presence of the vehicle basal activity of the reporter (0% inhibition). The ability of a test compound to inhibit this activity was determined as: Percentage inhibition=[[…]((RLU determined in the presence of vehicle−RLU determined for sample with test compound present) divided by (RLU determined in the presence of vehicle−RLU determined for sample with positive control inhibitor))]*100
The activities of example compounds tested are depicted in the table below. The activity ranges A, B and C refer to IC50 values in the reporter gene assay as follows: “A”: IC50<1 μM; “B”: 1 μM≤IC50≤20 μM and “C”: IC50>20 μM; NT=not tested.
In general terms: In a reporter assay the amount or activity of a reporter protein is the signal.
In the case of `OCCCNC1Cc2ccccc2N(c2ccc(C(F)(F)F)cc2)C1` (single isomer, unassigned) [045-En2, (R)- or (S)-3-((1-(4-(trifluoromethyl)phenyl)-1,2,3,4-tetrahydroquinolin-3-yl)amino)propan-1-ol], the 50% inhibitory concentration (IC50) (commonly the midpoint of a concentration-inhibition curve) was in the range of 1000 to 20000 nM.
Same read-out and setting: the figure for `C=CC(=O)NCC1Cc2c(Cc3noc(=O)[nH]3)cccc2N(c2ccc(C(F)(F)F)cc2)C1` (stereo not shown) [Cpd. No. 168-En2, N-((5-((5-oxo-4,5-dihydro-1,2,4-oxadiazol-3-yl)methyl)-1-(4-(trifluoromethyl)phenyl)-1,2,3,4-tetrahydroquinolin-3-yl)methyl)acrylamide] is less than 1000 nM.
As for `OCCCNC1Cc2ccccc2N(c2ccc(C(F)(F)F)cc2)C1` (single isomer, unassigned) [045-En1, (R)- or (S)-3-((1-(4-(trifluoromethyl)phenyl)-1,2,3,4-tetrahydroquinolin-3-yl)amino)propan-1-ol], the IC50 was 1000 to 20000 nM.
The same measure, in the same setting: the figure for `C=CC(=O)NCC1Cc2c(CC(=O)O)cccc2N(c2ccc(C(F)(F)F)cc2)C1` (stereo not shown) [Cpd. No. 161-En1, 2-(3-(acrylamidomethyl)-1-(4-(trifluoromethyl)phenyl)-1,2,3,4-tetrahydroquinolin-5-yl)acetic acid] is more than 20000 nM.

Still in this test, the particulars now being: Homo sapiens, HEK-293T, 24 h, Hek293T cells transiently transfected with TEAD-responsive element luciferase reporter; 24 hours incubation.
In turn, `C=CC(=O)NCC1Cc2ccccc2N(C(=O)C2CCCCC2)C1` (stereo not shown) [compound 180, N-((1-(cyclohexanecarbonyl)-1,2,3,4-tetrahydroquinolin-3-yl)methyl)acrylamide] displayed an IC50 of less than 1000 nM.
The same measure, in the same setting: the figure for `C=CC(=O)NCC1Cc2ccccc2N(c2cnc(C(F)(F)F)nc2)C1` (stereo not shown) [compound 115, N-((1-(2-(trifluoromethyl)pyrimidin-5-yl)-1,2,3,4-tetrahydroquinolin-3-yl)methyl)acrylamide] is less than 1000 nM; for `C=CC(=O)NCC1Cc2ccccc2N(c2ccc(C(F)F)cc2)C1` (stereo not shown) [compound 105, N-((1-(4-(difluoromethyl)phenyl)-1,2,3,4-tetrahydroquinolin-3-yl)methyl)acrylamide] it is less than 1000 nM.
On the same count and under the same terms, with `C=CC(=O)NC1Cc2ccccc2N(c2ccnc(C(F)(F)F)c2)C1` (stereo not shown) [compound 012, N-(1-(2-(trifluoromethyl)pyridin-4-yl)-1,2,3,4-tetrahydroquinolin-3-yl)acrylamide] the figure was 1000 to 20000 nM.
On to `O=C(O)CNC1Cc2ccccc2N(c2ccc(C(F)(F)F)cc2)C1` (stereo not shown) [compound 044, (1-(4-(trifluoromethyl)phenyl)-1,2,3,4-tetrahydroquinolin-3-yl)glycine], for which the half-inhibitory concentration (IC50) was more than 20000 nM.
Still for that read-out and setting: with `C=CC(=O)NCC1Cc2ccccc2N(c2cc(F)cc(F)c2)C1` (stereo not shown) [compound 111, N-((1-(3,5-difluorophenyl)-1,2,3,4-tetrahydroquinolin-3-yl)methyl)acrylamide] the figure was less than 1000 nM.
Still for that read-out and setting: the figure for `C=CC(=O)NCC1Cc2ccccc2N(CC2CCCCC2)C1` (stereo not shown) [compound 179, N-((1-(cyclohexylmethyl)-1,2,3,4-tetrahydroquinolin-3-yl)methyl)acrylamide] is less than 1000 nM; for `CS(=O)(=O)CCNC1Cc2ccccc2N(c2ccc(C(F)(F)F)cc2)C1` (stereo not shown) [compound 049, N-(2-(methylsulfonyl)ethyl)-1-(4-(trifluoromethyl)phenyl)-1,2,3,4-tetrahydroquinolin-3-amine] it is 1000 to 20000 nM; for `C=CC(=O)NC1Cc2ccccc2N(S(=O)(=O)c2cccc(C(F)(F)F)c2)C1` (stereo not shown) [compound 186, N-(1-((3-(trifluoromethyl)phenyl)sulfonyl)-1,2,3,4-tetrahydroquinolin-3-yl)acrylamide] it is less than 1000 nM.
On the same count and under the same terms, with `C=CC(=O)N(C)C1Cc2ccccc2N(c2ccc(C(F)(F)F)cc2)C1` (stereo not shown) [compound 132, N-methyl-N-(1-(4-(trifluoromethyl)phenyl)-1,2,3,4-tetrahydroquinolin-3-yl)acrylamide] the figure was less than 1000 nM.
`C=CC(=O)NC1Cc2ccccc2N(c2cccc(F)c2)C1` (stereo not shown) [compound 024, N-(1-(3-fluorophenyl)-1,2,3,4-tetrahydroquinolin-3-yl)acrylamide] came in with an IC50 of less than 1000 nM.
In the case of `C=CC(=O)NC1Cc2ccccc2N(c2ccc(Cl)cc2)C1` (stereo not shown) [compound 033, N-(1-(4-chlorophenyl)-1,2,3,4-tetrahydroquinolin-3-yl)acrylamide], the IC50 was less than 1000 nM.
The same measure, in the same setting: the figure for `O=S(=O)(O)CCNCC1Cc2ccccc2N(c2ccc(C(F)(F)F)cc2)C1` (stereo not shown) [compound 183, 2-(((1-(4-(trifluoromethyl)phenyl)-1,2,3,4-tetrahydroquinolin-3-yl)methyl)amino)ethane-1-sulfonic acid] is more than 20000 nM; for `C=CC(=O)NC1Cc2c(CC(=O)NS(C)(=O)=O)cccc2N(c2ccc(C(F)(F)F)cc2)C1` (stereo not shown) [compound 165, N-(5-(2-(methylsulfonamido)-2-oxoethyl)-1-(4-(trifluoromethyl)phenyl)-1,2,3,4-tetrahydroquinolin-3-yl)acrylamide] it is more than 20000 nM.
On the same count and under the same terms, the figure for `C=CC(=O)NC1Cc2c(CC(=O)O)cccc2N(c2ccc(C(F)(F)F)cc2)C1` (stereo not shown) [compound 162, 2-(3-acrylamido-1-(4-(trifluoromethyl)phenyl)-1,2,3,4-tetrahydroquinolin-5-yl)acetic acid] is more than 20000 nM; for `C=CC(=O)NCC1Cc2c(C(=O)O)cccc2N(c2ccc(C(F)(F)F)cc2)C1` (stereo not shown) [Cpd. No. 156, 3-(acrylamidomethyl)-1-(4-(trifluoromethyl)phenyl)-1,2,3,4-tetrahydroquinoline-5-carboxylic acid] it is more than 20000 nM.
The same measure, in the same setting: the figure for `C=CC(=O)NCC1Cc2ccccc2N(c2cccc(-c3ccccc3)c2)C1` (stereo not shown) [compound 093, N-((1-([1,1′-biphenyl]-3-yl)-1,2,3,4-tetrahydroquinolin-3-yl)methyl)acrylamide] is more than 20000 nM; for `N#CCCNC1Cc2ccccc2N(c2ccc(C(F)(F)F)cc2)C1` (stereo not shown) [compound 053, 3-((1-(4-(trifluoromethyl)phenyl)-1,2,3,4-tetrahydroquinolin-3-yl)amino)propanenitrile] it is 1000 to 20000 nM; for `C=CC(=O)NCC1Cc2ccccc2N(c2cccc(C(F)(F)F)c2)C1` (stereo not shown) [compound 086, N-((1-(3-(trifluoromethyl)phenyl)-1,2,3,4-tetrahydroquinolin-3-yl)methyl)acrylamide] it is less than 1000 nM.
As to `C=CC(=O)NCC1Cc2ccccc2N(c2ccc(C(=O)NC)cc2)C1` (stereo not shown) [compound 100, 4-(3-(acrylamidomethyl)-3,4-dihydroquinolin-1(2H)-yl)—N-methylbenzamide], the IC50 was more than 20000 nM.
With `C=CC(=O)NC1Cc2ccccc2N(c2cccc(Cl)c2)C1` (stereo not shown) [compound 032, N-(1-(3-chlorophenyl)-1,2,3,4-tetrahydroquinolin-3-yl)acrylamide], the IC50 was less than 1000 nM.
Same read-out and setting: the figure for `CCC(=O)NCC1Cc2c(Cc3ccccc3)cccc2N(c2ccc(C(F)(F)F)cc2)C1` (stereo not shown) [compound 130, N-((5-benzyl-1-(4-(trifluoromethyl)phenyl)-1,2,3,4-tetrahydroquinolin-3-yl)methyl)propionamide] is less than 1000 nM.
On the same count and under the same terms, with `C=CC(=O)NC1Cc2ccccc2N(c2cccc(NC(C)=O)c2)C1` (stereo not shown) [compound 015, N-(1-(3-acetamidophenyl)-1,2,3,4-tetrahydroquinolin-3-yl)acrylamide] the figure was 1000 to 20000 nM.
On the same count and under the same terms, the figure for `C=CC(=O)NC1Cc2ccccc2N(c2ccc(C(F)(F)F)nc2)C1` (stereo not shown) [compound 010, N-(1-(6-(trifluoromethyl)pyridin-3-yl)-1,2,3,4-tetrahydroquinolin-3-yl)acrylamide] is less than 1000 nM; for `C=CC(=O)NCC1Cc2ccccc2N(c2ccc(Cl)cc2)C1` (stereo not shown) [compound 089, N-((1-(4-chlorophenyl)-1,2,3,4-tetrahydroquinolin-3-yl)methyl)acrylamide] it is less than 1000 nM.
`C=CC(=O)NCC1CCc2ccccc2N1c1ccc(C(F)(F)F)cc1` (stereo not shown) [Cpd. No. 178, N-((1-(4-(trifluoromethyl)phenyl)-1,2,3,4-tetrahydroquinolin-2-yl)methyl)acrylamide] displayed a half-maximal inhibitory concentration (IC50) of less than 1000 nM.
Same read-out and setting: with `C=CC(=O)N(CCOC)CC1Cc2ccccc2N(c2ccc(C(F)(F)F)cc2)C1` (stereo not shown) [compound 135, N-(2-methoxyethyl)-N-((1-(4-(trifluoromethyl)phenyl)-1,2,3,4-tetrahydroquinolin-3-yl)methyl)acrylamide] the figure was less than 1000 nM; with `C=CC(=O)NCC1Cc2c(-c3noc(=O)[nH]3)cccc2N(c2ccc(C(F)(F)F)cc2)C1` (stereo not shown) [compound 167, N-((5-(5-oxo-4,5-dihydro-1,2,4-oxadiazol-3-yl)-1-(4-(trifluoromethyl)phenyl)-1,2,3,4-tetrahydroquinolin-3-yl)methyl)acrylamide], more than 20000 nM; with `C=CS(=O)(=O)NCC1Cc2ccccc2N(c2ccc(C(F)(F)F)cc2)C1` (stereo not shown) [compound 122, N-((1-(4-(trifluoromethyl)phenyl)-1,2,3,4-tetrahydroquinolin-3-yl)methyl)ethenesulfonamide], less than 1000 nM.
On the same count and under the same terms, with `C=CC(=O)NCC1Cc2ccccc2N(c2ccc(OC(F)F)cc2)C1` (stereo not shown) [compound 107, N-((1-(4-(difluoromethoxy)phenyl)-1,2,3,4-tetrahydroquinolin-3-yl)methyl)acrylamide] the figure was less than 1000 nM.
